This is an account of results in publication PMC2409906, “Establishment and characterisation of a human carcinoma cell line with acquired resistance to Aplidin™” (British Journal of Cancer, 2004).

Starred links: 1 amine or outer side, 2 acyl side, 3 side chain; linkers in the order of their positions; H or OH if unused. Positions of bridges follow the written chain, without caps; N, C: chain ends. Non-standard residues stand in square brackets, D forms with d. Residues, ends and D or L forms follow the SMILES beside them. *: point of attachment. X1 = CC[C@H](C)[C@@H](N[*:1])[C@@H](O)CC(=O)O[C@H](C(=O)[C@H](C)C(=O)[*:2])C(C)C; X3 = CC[C@H](C)[C@@H](N[*:1])[C@@H](O)CC(=O)[*:2]; X2 = CN(C)c1ccc2c(CC(=O)*)cc(=O)oc2c1; NMeY = CN[C@@H](Cc1ccc(O)cc1)C(=O)O; dNMeL = CN[C@H](CC(C)C)C(=O)O; Hiv = CC(C)[C@H](O)C(=O)O; Pyruvoyl = CC(=O)C(=O)*; Lac = C[C@H](O)C(=O)O

The subject of one data set is human leukaemia samples. Particulars: ref Bresters et al, 2003; cited from earlier work.
Details of data set [1]: method as in Vervoort and Fenical, 2000; Joullie et al, 2003. Particulars: ref Vervoort and Fenical, 2000; Joullie et al, 2003; cited from earlier work.
A further data set relates to HeLa-APL cells. As to the kind of experiment: Sulphorhodamine B (SRB) growth inhibition assay, resistant subline. It counts as cell-based, human. Particulars: HeLa-APL vs HeLa wt; for crossresistance of HeLa-APL cells: data not shown; for crossresistance of HeLa-APL cells (IC50 values, SRB cell growth assay): 48 or 72 h exposure. As to the method:
HeLa, HeLa-APL, LoVo and LoVo-dox ([Grandi et al, 1986]) cells were maintained in DMEM supplemented with 10% FCS and 100 U ml^−1 penicillin and streptomycin at 37°C and 5% CO2.
Cells were washed twice with PBS, fixed for 15 min in 1% glutaraldehyde solution, rinsed twice in PBS, and stained in 0.4% SRB solution for 30 min at room temperature. Cells were then rinsed several times with 1% acetic acid solution and air-dried. Sulphorhodamine B was then extracted in 10 mM trizma base solution and the absorbance measured at 490 nm. Cell survival was expressed as percentage of control cell growth.

For data set [2], the system named is HeLa wt and HeLa-APL cells. The data set can be described thus: Detection of drug in cell extracts by Maldi-TOF mass spectrometry. In kind it is in vitro ADME, human. Particulars: 450 nM, 1 h exposure, methanol cell extracts, Maldi-TOF MS, parental and HeLa-APL cells. As to the method:
To detect minute amounts of APL present in the cellular extracts, Matrix-Assisted Laser Desorption/Ionisation-Time Of Flight Mass Spectrometry (Maldi-TOF MS) technique was used. Cell cultures were treated with vehicle or APL at the concentrations and times indicated in the text, washed with PBS and harvested by centrifugation at 6000 r.p.m. for 5 min at 4°C. Cell pellets were washed with PBS and extracted with cold methanol. Equal amounts of extract were applied on a template, air dried, mixed with 0.2–0.5 μl matrix (10 mg ml^−1 dihydroxy benzoic acid in water :acetonitrile mix, 1% trifluoroacetic acid) and air dried. Analyses were performed on a Voyager DE Pro (PerSeptive Biosystems, Framingham, MS, USA). Mass spectra were averaged over 100–200 laser shots from a nitrogen laser (337 nm) operating in a linear mode. Ionised molecules were accelerated with a voltage of 20 kV. The following peptides were used as external markers: intact human insulin, human insulin alpha-chain, human insulin beta-chain and cytochrome c.

For data set [3], the system named is HeLa wt and HeLa-APL cells. The data set can be described thus: Intracellular accumulation of fluorescent APL-dmac (fluorescence microscopy). It counts as in vitro ADME, human. As to the method: (§1) Cells were stained with APL-dmac, Calcein-AM or Hoechst-33342 by direct addition of the fluorescent compounds in the cell culture dishes, incubated at 37°C for the times indicated, washed in PBS and examined by fluorescence microscopy.

The target in a further data set is T1, Pgp170 in LoVo-Dox cells (Homo sapiens, UniProt P08183).
T1 construct: endogenous in cells; host or cells: LoVo-Dox (doxorubicin-selected LoVo colorectal carcinoma cells)
T1 sequence (P08183 whole entry): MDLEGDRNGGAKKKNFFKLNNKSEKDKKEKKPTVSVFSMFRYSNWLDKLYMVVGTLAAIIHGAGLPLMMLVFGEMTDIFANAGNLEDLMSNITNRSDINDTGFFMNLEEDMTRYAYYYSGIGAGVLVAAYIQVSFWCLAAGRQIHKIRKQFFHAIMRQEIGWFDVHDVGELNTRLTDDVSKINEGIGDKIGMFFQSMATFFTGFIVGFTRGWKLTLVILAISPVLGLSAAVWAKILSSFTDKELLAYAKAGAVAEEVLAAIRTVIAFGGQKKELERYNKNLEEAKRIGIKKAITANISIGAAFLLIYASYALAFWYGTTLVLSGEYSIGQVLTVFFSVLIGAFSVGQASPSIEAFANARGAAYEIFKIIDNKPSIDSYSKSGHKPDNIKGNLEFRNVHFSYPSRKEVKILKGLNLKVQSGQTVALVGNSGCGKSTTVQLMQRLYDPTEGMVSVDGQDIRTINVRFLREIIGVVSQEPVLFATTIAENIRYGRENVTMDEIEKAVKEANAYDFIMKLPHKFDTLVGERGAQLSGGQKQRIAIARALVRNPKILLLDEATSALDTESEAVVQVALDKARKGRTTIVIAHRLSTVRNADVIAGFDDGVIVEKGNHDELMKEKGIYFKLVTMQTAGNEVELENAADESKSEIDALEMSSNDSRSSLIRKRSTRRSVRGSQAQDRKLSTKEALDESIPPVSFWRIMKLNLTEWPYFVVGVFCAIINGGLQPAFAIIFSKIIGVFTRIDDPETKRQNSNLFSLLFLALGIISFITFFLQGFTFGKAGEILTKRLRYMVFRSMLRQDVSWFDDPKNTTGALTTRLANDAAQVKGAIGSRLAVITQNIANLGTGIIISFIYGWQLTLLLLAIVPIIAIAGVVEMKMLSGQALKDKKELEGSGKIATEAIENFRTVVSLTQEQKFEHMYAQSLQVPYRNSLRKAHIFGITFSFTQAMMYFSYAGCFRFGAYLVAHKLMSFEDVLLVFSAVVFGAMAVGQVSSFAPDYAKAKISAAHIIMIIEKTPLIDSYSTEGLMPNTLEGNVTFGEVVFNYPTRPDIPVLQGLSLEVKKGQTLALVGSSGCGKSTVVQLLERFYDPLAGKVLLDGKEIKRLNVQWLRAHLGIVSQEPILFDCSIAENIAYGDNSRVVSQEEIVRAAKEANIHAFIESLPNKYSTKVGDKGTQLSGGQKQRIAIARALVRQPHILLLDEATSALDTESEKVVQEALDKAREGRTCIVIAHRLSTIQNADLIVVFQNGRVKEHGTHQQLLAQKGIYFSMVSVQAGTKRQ
As to the kind of experiment: Calcein-AM accumulation in LoVo-Dox cells (fluorescence microscopy). In kind it is cell-based. The settings on record: 50 μM verapamil, Calcein-AM loaded for 1 h. As for the experimental part:
as §1

Take `Nc1ccn([C@@H]2O[C@H](CO)[C@@H](O)C2(F)F)c(=O)n1` [2′,2′-difluorodeoxycytidine]: the “crossresistance with APL” value in the data set with human leukaemia samples was “trend for crossresistance”.

Take `CC[C@H](C)[C@H]1NC(=O)[C@@H](NC(=O)[C@@H](CC(C)C)N(C)C(=O)[C@@H]2CCCN2C(=O)[C@H](C)O)[C@@H](C)OC(=O)[C@H](Cc2ccc(OC)cc2)N(C)C(=O)[C@@H]2CCCN2C(=O)[C@H](CC(C)C)NC(=O)[C@H](C(C)C)OC(=O)C[C@@H]1O` [tamandarin A] (H-[Lac]P[dNMeL]T[X3][Hiv]LP[NMeY](Me); ester 4-C): the “cytotoxic activity relative to APL” value in data set [1] is reported as “comparable to that of APL”.

As to `O=C1c2c(O)ccc(O)c2C(=O)c2c(NCCNCCO)ccc(NCCNCCO)c21` [mitoxantrone], the “crossresistance of HeLa-APL cells” value in the data set with HeLa-APL cells was “no significant crossresistance”.

Take `Nc1nc(F)nc2c1ncn2[C@@H]1O[C@H](CO)[C@@H](O)[C@@H]1O` [fludarabine]: the “crossresistance of HeLa-APL cells (IC50 values, SRB cell growth assay)” value with HeLa-APL cells (triplicate plates) was “no significant crossresistance”.

Consider `CC[C@H](C)[C@H]1NC(=O)[C@@H](NC(=O)[C@@H](CC(C)C)N(C)C(=O)[C@@H]2CCCN2C(=O)C(C)=O)[C@@H](C)OC(=O)[C@H](Cc2ccc(OC)cc2)N(C)C(=O)[C@@H]2CCCN2C(=O)[C@H](CC(C)C)NC(=O)[C@@H](C)C(=O)[C@H](C(C)C)OC(=O)C[C@@H]1O` [APL, Aplidin™] (Pyruvoyl-P[dNMeL]T[X1]LP[NMeY](Me); ester 3-C), for which, in data set [2], the “presence of the intact drug in cells” value is “confirmed”.

Regarding didemnin B, in the data set on HeLa-APL cells (48 h exposure, SRB assay, triplicate plates), the “crossresistance of HeLa-APL cells to APL structural analogues” value is “comparable crossresistance”. In data set [1], the “cytotoxic activity relative to APL” value is “comparable to that of APL”.

Turning to `N[C@@H](Cc1ccc(N(CCCl)CCCl)cc1)C(=O)O` [melphalan], the “crossresistance of HeLa-APL cells” value in the data set with HeLa-APL cells is on record as “no significant crossresistance”.

As to `COc1cc(NS(C)(=O)=O)ccc1Nc1c2ccccc2nc2ccccc12` [amsacrine], in the data set on HeLa-APL cells, the “crossresistance of HeLa-APL cells” value is “no significant crossresistance”.

With `CC(=O)O[C@H]1C(=O)[C@@]2(C)[C@H]([C@H](OC(=O)c3ccccc3)[C@]3(O)C[C@H](OC(=O)[C@H](O)[C@@H](NC(=O)c4ccccc4)c4ccccc4)C(C)=C1C3(C)C)[C@]1(OC(C)=O)CO[C@@H]1C[C@@H]2O` [paclitaxel], the “crossresistance of HeLa-APL cells (IC50 values, SRB cell growth assay)” value in the data set on HeLa-APL cells (triplicate plates) was “no significant crossresistance”.

In the case of `COc1cc([C@@H]2c3cc4c(cc3[C@@H](O[C@@H]3O[C@@H]5CO[C@@H](C)O[C@H]5[C@H](O)[C@H]3O)[C@H]3COC(=O)[C@H]23)OCO4)cc(OC)c1O` [etoposide], the “crossresistance of HeLa-APL cells (IC50 values, SRB cell growth assay)” value with HeLa-APL cells (triplicate plates) was “no significant crossresistance”.

With `Sc1ncnc2nc[nH]c12` [6-mercaptopurine], in the data set on HeLa-APL cells (triplicate plates), the “crossresistance of HeLa-APL cells (IC50 values, SRB cell growth assay)” value was “no significant crossresistance”.

In the case of `CC[C@]1(O)C[C@@H]2CN(CCc3c([nH]c4ccccc34)[C@@](C(=O)OC)(c3cc4c(cc3OC)N(C)[C@H]3[C@@](O)(C(=O)OC)[C@H](OC(C)=O)[C@]5(CC)C=CCN6CC[C@]43[C@@H]65)C2)C1` [vinblastine], in the data set on HeLa-APL cells (triplicate plates), the “crossresistance of HeLa-APL cells (IC50 values, SRB cell growth assay)” value is reported as “no significant crossresistance”.

On to `Nc1nc2nc[nH]c2c(=S)[nH]1` [6-thioguanine], for which the “crossresistance of HeLa-APL cells (IC50 values, SRB cell growth assay)” value in the data set on HeLa-APL cells (triplicate plates) is listed as “no significant crossresistance”.

Consider `Nc1ncn([C@@H]2O[C@H](CO)[C@@H](O)[C@H]2O)c(=O)n1` [5-azacytidine], for which the “crossresistance of HeLa-APL cells (IC50 values, SRB cell growth assay)” value in the data set on HeLa-APL cells (triplicate plates) is given as “no significant crossresistance”.

For `O=C(O)CCCc1ccc(N(CCCl)CCCl)cc1` [chlorambucil], the “crossresistance of HeLa-APL cells” value in the data set on HeLa-APL cells is listed as “no significant crossresistance”.

Turning to `CC[C@H](C)[C@H]1NC(=O)[C@@H](NC(=O)[C@@H](CC(C)C)N(C)C(=O)Cc2cc(=O)oc3cc(N(C)C)ccc23)[C@@H](C)OC(=O)[C@H](Cc2ccc(OC)cc2)N(C)C(=O)[C@@H]2CCCN2C(=O)[C@H](CC(C)C)NC(=O)[C@@H](C)C(=O)[C@H](C(C)C)OC(=O)C[C@@H]1O` [APL-dmac, aplidin-dimethylaminocoumarin] (X2-[dNMeL]T[X1]LP[NMeY](Me); ester 2-C), the “presence of the intact drug in cells” value in data set [2] is “detected in both cell lines”. Moreover, in data set [3] (450 nM APL-dmac, 1 h, 37°C, HeLa wt and HeLa-APL), the “internalisation and accumulation in the cytoplasmic compartment” value was “consistent in both cell systems”. Moreover, in data set [3] (not shown), the “internalisation after long-term treatment” value is listed as “remained internalised”.

Consider `COc1ccc(CCN(C)CCCC(C#N)(c2ccc(OC)c(OC)c2)C(C)C)cc1OC` (centres unmarked) [verapamil], for which the “effect of pre-incubation on calcein-AM accumulation” value on Pgp170 in LoVo-Dox cells is “accumulation of calcein-AM in LoVo-Dox-resistant cells to an extent similar to that observed in sensitive LoVo cells”.

`CC[C@@]1(O)C(=O)OCc2c1cc1n(c2=O)Cc2cc3ccccc3nc2-1` [camptothecin]: in the data set on HeLa-APL cells (triplicate plates), the “crossresistance of HeLa-APL cells (IC50 values, SRB cell growth assay)” value is “no significant crossresistance”.

On to `COc1cccc2c1C(=O)c1c(O)c3c(c(O)c1C2=O)C[C@@](O)(C(=O)CO)C[C@@H]3O[C@H]1C[C@H](N)[C@H](O)[C@H](C)O1` [doxorubicin], for which the “crossresistance of HeLa-APL cells (IC50 values, SRB cell growth assay)” value in the data set on HeLa-APL cells (triplicate plates) is “no significant crossresistance”.

In the case of `N.N.[Cl][Pt][Cl]` [cisplatin], the “crossresistance of HeLa-APL cells (IC50 values, SRB cell growth assay)” value with HeLa-APL cells (triplicate plates) is recorded as “no significant crossresistance”.
